# From ChEMBL document CHEMBL2440076, “New triarylpyrazoles as broad-spectrum anticancer agents: design, synthesis, and biological evaluation” (Eur J Med Chem, 2013)
# What was measured:
# Type in all cases: functional
# OVCAR-3 [1] = assay: Growth inhibition of human OVCAR3 cells assessed as cell growth at 3X10'-7 M after 48 hrs by sulforhodamine B assay; conditions: OVCAR-3, 48 h, read-out: Activity
# MDA-MB-435 = assay: Growth inhibition of human MDA-MB-435 cells assessed as cell growth at 3X10'-7 M after 48 hrs by sulforhodamine B assay; conditions: MDA-MB-435, 48 h, read-out: Activity
# [2] = Growth inhibition of human Hs 578T cells assessed as cell growth at 3X10'-8 M after 48 hrs by sulforhodamine B assay; conditions: read-out: Activity
# MDA-MB-231 = assay: Growth inhibition of human MDA-MB-231 cells assessed as cell growth at 3X10'-8 M after 48 hrs by sulforhodamine B assay; conditions: MDA-MB-231, 48 h, read-out: Activity
# A498 [3] = assay: Growth inhibition of human A498 cells assessed as cell growth at 3X10'-8 M after 48 hrs by sulforhodamine B assay; conditions: A498, 48 h, read-out: Activity
# OVCAR-8 = assay: Growth inhibition of human OVCAR8 cells assessed as cell growth at 3X10'-8 M after 48 hrs by sulforhodamine B assay; conditions: OVCAR-8, 48 h, read-out: Activity
# M14 = assay: Growth inhibition of human M14 cells assessed as cell growth at 3X10'-8 M after 48 hrs by sulforhodamine B assay; conditions: M14, 48 h, read-out: Activity
# Malme-3M = assay: Growth inhibition of human MALME-3M cells assessed as cell growth at 3X10'-8 M after 48 hrs by sulforhodamine B assay; conditions: read-out: Activity
# SNB-75 = assay: Growth inhibition of human SNB75 cells assessed as cell growth at 3X10'-8 M after 48 hrs by sulforhodamine B assay; conditions: SNB-75, 48 h, read-out: Activity
# PC-3 = assay: Growth inhibition of human PC3 cells assessed as cell growth at 3X10'-5 M after 48 hrs by sulforhodamine B assay; conditions: PC-3, 48 h, read-out: Activity
# OVCAR-4 = assay: Growth inhibition of human OVCAR4 cells assessed as cell growth at 3X10'-5 M after 48 hrs by sulforhodamine B assay; conditions: OVCAR-4, 48 h, read-out: Activity
# SK-MEL-5 [4] = assay: Growth inhibition of human SK-MEL-5 cells assessed as cell growth at 3X10'-9 M after 48 hrs by sulforhodamine B assay; conditions: SK-MEL-5, 48 h, read-out: Activity
# HCT-116 [5] = assay: Growth inhibition of human HCT116 cells assessed as cell growth at 3X10'-9 M after 48 hrs by sulforhodamine B assay; conditions: HCT-116, 48 h, read-out: Activity
# A549 = assay: Growth inhibition of human A549/ATCC cells assessed as cell growth at 3X10'-9 M after 48 hrs by sulforhodamine B assay; conditions: A549, 48 h, read-out: Activity
# 786-0 = assay: Growth inhibition of human 786-0 cells assessed as cell growth at 3X10'-6 M after 48 hrs by sulforhodamine B assay; conditions: 786-0, 48 h, read-out: Activity
# [6] = Growth inhibition of human HCC2998 cells assessed as cell growth at 10^-7 M after 48 hrs by sulforhodamine B assay; conditions: HCC 2998, 48 h, read-out: Activity
# RPMI-8226 = assay: Growth inhibition of human RPMI8226 cells assessed as cell growth at 10^-7 M after 48 hrs by sulforhodamine B assay; conditions: RPMI-8226, 48 h, read-out: Activity
# BT-549 = assay: Growth inhibition of human BT549 cells assessed as cell growth at 10^-4 M after 48 hrs by sulforhodamine B assay; conditions: BT-549, 48 h, read-out: Activity
# RXF 393 = assay: Growth inhibition of human RXF393 cells assessed as cell growth at 10^-4 M after 48 hrs by sulforhodamine B assay; conditions: RXF 393, 48 h, read-out: Activity
# OVCAR-3 [7] = assay: Growth inhibition of human OVCAR3 cells assessed as cell growth at 10^-4 M after 48 hrs by sulforhodamine B assay; conditions: OVCAR-3, 48 h, read-out: Activity
# SF-295 [8] = assay: Growth inhibition of human SF295 cells assessed as cell growth at 10^-4 M after 48 hrs by sulforhodamine B assay; conditions: SF-295, 48 h, read-out: Activity
# A498 [9] = assay: Growth inhibition of human A498 cells assessed as cell growth at 10^-8 M after 48 hrs by sulforhodamine B assay; conditions: A498, 48 h, read-out: Activity
# U-251 = assay: Growth inhibition of human U251 cells assessed as cell growth at 10^-8 M after 48 hrs by sulforhodamine B assay; conditions: U-251, 48 h, read-out: Activity
# SF-295 [10] = assay: Growth inhibition of human SF295 cells assessed as cell growth at 10^-8 M after 48 hrs by sulforhodamine B assay; conditions: SF-295, 48 h, read-out: Activity
# HCT-116 [11] = assay: Growth inhibition of human HCT116 cells assessed as cell growth at 10^-8 M after 48 hrs by sulforhodamine B assay; conditions: HCT-116, 48 h, read-out: Activity
# HOP-62 = assay: Growth inhibition of human HOP62 cells assessed as cell growth at 10^-8 M after 48 hrs by sulforhodamine B assay; conditions: HOP-62, 48 h, read-out: Activity
# SR = assay: Growth inhibition of human SR cells assessed as cell growth at 10^-8 M after 48 hrs by sulforhodamine B assay; conditions: read-out: Activity
# CCRF-CEM = assay: Growth inhibition of human CCRF-CEM cells assessed as cell growth at 10^-8 M after 48 hrs by sulforhodamine B assay; conditions: read-out: Activity
# SK-MEL-5 [12] = assay: Growth inhibition of human SK-MEL-5 cells assessed as cell growth at 10^-5 M after 48 hrs by sulforhodamine B assay; conditions: SK-MEL-5, 48 h, read-out: Activity
# SK-MEL-28 = assay: Growth inhibition of human SK-MEL-28 cells assessed as cell growth at 10^-5 M after 48 hrs by sulforhodamine B assay; conditions: SK-MEL-28, 48 h, read-out: Activity
# SF-268 = assay: Growth inhibition of human SF268 cells assessed as cell growth at 10^-5 M after 48 hrs by sulforhodamine B assay; conditions: SF-268, 48 h, read-out: Activity
# KM12 = assay: Growth inhibition of human KM12 cells assessed as cell growth at 10^-5 M after 48 hrs by sulforhodamine B assay; conditions: KM12, 48 h, read-out: Activity
# HCT-15 = assay: Growth inhibition of human HCT15 cells assessed as cell growth at 10^-5 M after 48 hrs by sulforhodamine B assay; conditions: HCT-15, 48 h, read-out: Activity
# UO-31 = assay: Growth inhibition of human UO31 cells assessed as cell growth at 10^-6 M after 48 hrs by sulforhodamine B assay; conditions: UO-31, 48 h, read-out: Activity
# SK-MEL-5 [13] = assay: Growth inhibition of human SK-MEL-5 cells assessed as cell growth at 10^-6 M after 48 hrs by sulforhodamine B assay; conditions: SK-MEL-5, 48 h, read-out: Activity
# HT-29 = assay: Growth inhibition of human HT-29 cells assessed as cell growth at 10^-6 M after 48 hrs by sulforhodamine B assay; conditions: HT-29, 48 h, read-out: Activity
# [14] = Growth inhibition of human HCC2998 cells assessed as cell growth at 10^-6 M after 48 hrs by sulforhodamine B assay; conditions: HCC 2998, 48 h, read-out: Activity
compound,measurement,setting,value
COc1cc(-c2nn(-c3cccc(NC(=O)Nc4ccc(Cl)c(C(F)(F)F)c4)c3)cc2-c2ccncc2)ccc1Cl,growth at 0.3 µM,OVCAR-3 [1],100%
same,growth at 0.3 µM,MDA-MB-435,91%
same,growth at 0.03 µM,[2],89%
same,growth at 0.03 µM,MDA-MB-231,92%
same,growth at 0.03 µM,A498 [3],93%
same,growth at 0.03 µM,OVCAR-8,101%
same,growth at 0.03 µM,M14,109%
same,growth at 0.03 µM,Malme-3M,102%
same,growth at 0.03 µM,SNB-75,93%
same,growth at 30 µM,PC-3,-20%
same,growth at 30 µM,OVCAR-4,-2%
same,growth at 0.003 µM,SK-MEL-5 [4],98%
same,growth at 0.003 µM,HCT-116 [5],102%
same,growth at 0.003 µM,A549,95%
same,growth at 3 µM,786-0,28%
COc1cc(-c2nn(-c3cccc(NC(=O)c4ccccc4)c3)cc2-c2ccncc2)ccc1Cl,growth at 0.1 µM,[6],100%
same,growth at 0.1 µM,RPMI-8226,96%
same,growth at 100 µM,BT-549,28%
same,growth at 100 µM,RXF 393,-8%
same,growth at 100 µM,OVCAR-3 [7],-51%
same,growth at 100 µM,SF-295 [8],-46%
same,growth at 0.01 µM,A498 [9],92%
same,growth at 0.01 µM,U-251,96%
same,growth at 0.01 µM,SF-295 [10],93%
same,growth at 0.01 µM,HCT-116 [11],97%
same,growth at 0.01 µM,HOP-62,94%
same,growth at 0.01 µM,SR,94%
same,growth at 0.01 µM,CCRF-CEM,97%
same,growth at 10 µM,SK-MEL-5 [12],-60%
same,growth at 10 µM,SK-MEL-28,43%
same,growth at 10 µM,SF-268,24%
same,growth at 10 µM,KM12,10%
same,growth at 10 µM,HCT-15,17%
same,growth at 1 µM,UO-31,42%
same,growth at 1 µM,SK-MEL-5 [13],10%
same,growth at 1 µM,HT-29,17%
same,growth at 1 µM,[14],75%
COc1cc(-c2nn(-c3cccc(NC(=O)c4ccc(Cl)c(C(F)(F)F)c4)c3)cc2-c2ccncc2)ccc1Cl,growth at 0.3 µM,OVCAR-3 [1],98%
same,growth at 0.3 µM,MDA-MB-435,87%
same,growth at 0.03 µM,[2],91%
same,growth at 0.03 µM,MDA-MB-231,97%
same,growth at 0.03 µM,A498 [3],89%
same,growth at 0.03 µM,OVCAR-8,98%
same,growth at 0.03 µM,M14,96%
same,growth at 0.03 µM,Malme-3M,78%
same,growth at 0.03 µM,SNB-75,89%
same,growth at 30 µM,PC-3,11%
same,growth at 30 µM,OVCAR-4,32%
same,growth at 0.003 µM,SK-MEL-5 [4],99%
same,growth at 0.003 µM,HCT-116 [5],100%
same,growth at 0.003 µM,A549,96%
same,growth at 3 µM,786-0,71%
COc1cc(-c2nn(-c3cccc(NC(=O)c4ccc(N5CCOCC5)c(C(F)(F)F)c4)c3)cc2-c2ccncc2)ccc1Cl,growth at 0.1 µM,[6],92%
same,growth at 0.1 µM,RPMI-8226,88%
same,growth at 100 µM,BT-549,9%
same,growth at 100 µM,RXF 393,-27%
same,growth at 100 µM,OVCAR-3 [7],-33%
same,growth at 100 µM,SF-295 [8],-72%
same,growth at 0.01 µM,A498 [9],90%
same,growth at 0.01 µM,U-251,101%
same,growth at 0.01 µM,SF-295 [10],89%
same,growth at 0.01 µM,HCT-116 [11],99%
same,growth at 0.01 µM,HOP-62,96%
same,growth at 0.01 µM,SR,91%
same,growth at 0.01 µM,CCRF-CEM,94%
same,growth at 10 µM,SK-MEL-5 [12],-55%
same,growth at 10 µM,SK-MEL-28,14%
same,growth at 10 µM,SF-268,12%
same,growth at 10 µM,KM12,-6%
same,growth at 10 µM,HCT-15,7%
same,growth at 1 µM,UO-31,33%
same,growth at 1 µM,SK-MEL-5 [13],-11%
same,growth at 1 µM,HT-29,9%
same,growth at 1 µM,[14],52%
O=C(Nc1cccc(-n2cc(-c3ccncc3)c(-c3ccc(Cl)c(O)c3)n2)c1)Nc1ccc(Cl)c(Cl)c1,growth at 0.3 µM,OVCAR-3 [1],103%
same,growth at 0.3 µM,MDA-MB-435,91%
same,growth at 0.03 µM,[2],71%
same,growth at 0.03 µM,MDA-MB-231,100%
same,growth at 0.03 µM,A498 [3],95%
same,growth at 0.03 µM,OVCAR-8,98%
same,growth at 0.03 µM,M14,94%
same,growth at 0.03 µM,Malme-3M,89%
same,growth at 0.03 µM,SNB-75,92%
same,growth at 30 µM,PC-3,1%
same,growth at 30 µM,OVCAR-4,17%
same,growth at 0.003 µM,SK-MEL-5 [4],96%
same,growth at 0.003 µM,HCT-116 [5],94%
same,growth at 0.003 µM,A549,96%
same,growth at 3 µM,786-0,74%
O=C(Nc1cccc(-n2cc(-c3ccncc3)c(-c3ccc(Cl)c(O)c3)n2)c1)Nc1cccc(C(F)(F)F)c1,growth at 0.3 µM,OVCAR-3 [1],92%
same,growth at 0.3 µM,MDA-MB-435,96%
same,growth at 0.03 µM,[2],91%
same,growth at 0.03 µM,MDA-MB-231,101%
same,growth at 0.03 µM,A498 [3],83%
same,growth at 0.03 µM,OVCAR-8,106%
same,growth at 0.03 µM,M14,98%
same,growth at 0.03 µM,Malme-3M,82%
same,growth at 0.03 µM,SNB-75,94%
same,growth at 30 µM,PC-3,-3%
same,growth at 30 µM,OVCAR-4,16%
same,growth at 0.003 µM,SK-MEL-5 [4],103%
same,growth at 0.003 µM,HCT-116 [5],96%
same,growth at 0.003 µM,A549,97%
same,growth at 3 µM,786-0,58%
O=C(Nc1cccc(-n2cc(-c3ccncc3)c(-c3ccc(Cl)c(O)c3)n2)c1)Nc1ccc(Cl)c(C(F)(F)F)c1,growth at 0.3 µM,OVCAR-3 [1],101%
same,growth at 0.3 µM,MDA-MB-435,86%
same,growth at 0.03 µM,[2],88%
same,growth at 0.03 µM,MDA-MB-231,96%
same,growth at 0.03 µM,A498 [3],91%
same,growth at 0.03 µM,OVCAR-8,95%
same,growth at 0.03 µM,M14,101%
same,growth at 0.03 µM,Malme-3M,94%
same,growth at 0.03 µM,SNB-75,92%
same,growth at 30 µM,PC-3,-19%
same,growth at 30 µM,OVCAR-4,9%
same,growth at 0.003 µM,SK-MEL-5 [4],99%
same,growth at 0.003 µM,HCT-116 [5],105%
same,growth at 0.003 µM,A549,98%
same,growth at 3 µM,786-0,19%
